The values that follow come from patent US20050118658A1, “Use of ERRalpha phosphorylation status as a breast cancer biomarker” (priority 2003, published 2005).

Series [1] concerns ERRα. The series can be described thus: Immunoblot analysis of ERRα expression in ERRα-transfected BT-474 cells. In kind it is cell-based, human. As to conditions: BT-474 cells transfected with ERRα, 48 h; 20 μg/ml trastuzumab, 1 μM gefitinib, 20 μM U0126 or 20 μM LY294002. As for the experimental part:
(§1) BT-474 cells were co-transfected in parallel with the ERE(5x)-regulated and TATA dual-luciferase reporter gene sets along with the indicated expression plasmids. […] In panel (B), the cells were incubated for 48 h in estrogen-free medium supplemented with dimethyl sulfoxide as the drug vehicle control, 20 μM U0126 (MEK inhibitor), or 20 μM LY294002 (PI3K inhibitor) as indicated. After incubation for 48 h, the cells were harvested for dual-luciferase assays. Data were analyzed as described in the legend to FIG. 2. (C) Immunoblot analysis of protein extracts (20 μg per sample) prepared from BT-474 cells treated as in panels A and B above for luciferase activity. The membrane was probed with antibodies that react specifically with ERRα. Reactive proteins were visualized by enhanced chemiluminescence and autoradiography. (D) Immunoblot analysis as in panel C above, only the membrane was probed with antibodies that react specifically with phosphorylated Akt (p-Akt), total Akt, phosphorylated MAPK (p-MAPK) or total MAPK.
(§2) Proteins were extracted in Cell Lysis Buffer (Cell Signaling Technology, Beverly, Mass.) supplemented with Protease Inhibitor Cocktail Set III and Phosphatase Inhibitor Cocktail Set II (Calbiochem). Protein amounts were quantified with Coomassie Protein Assay Reagent (Pierce Biotechnology) with BSA as the standard. […] In FIG. 5D, the membrane was probed sequentially with p44/42 MAPK polyclonal antibody, phospho-specific p44/42 MAPK (Thr202/Tyr204) monoclonal antibody E10, Akt polyclonal antibody, and phospho-specific Akt (Ser473) polyclonal antibody (Cell Signaling Technology). Reacting material was detected using horseradish peroxidase-conjugated secondary antibodies (Jackson ImmunoResearch Laboratories, West Grove, Pa.) together with enhanced chemiluminescence (Amersham Pharmacia) and autoradiography.
(Immunoblotting shows a protein as a band on a membrane.)

The test system of series [2] is phosphorylated Akt (p-Akt). In words: Immunoblot analysis of phosphorylated versus total Akt in BT-474 cells. It counts as cell-based, human. As to conditions: 48 h, 20 μg/ml trastuzumab, 1 μM gefitinib, 20 μM U0126 or 20 μM LY294002. Here is the method:
as §1, §2

Series [3] deals with ERRα1-mediated constitutive activation of ERE-regulated transcription in BT-474 cells. The series can be described thus: Transient transfection dual-luciferase assay of ERRα1-mediated ERE-regulated transcription in BT-474 cells. In kind it is cell-based, human. As for the experimental part:
as §1

Series [4] has as its system phosphorylated MAPK (p-MAPK). In words: Immunoblot analysis of phosphorylated versus total MAPK in BT-474 cells. To be noted: 48 h, 20 μg/ml trastuzumab, 1 μM gefitinib, 20 μM U0126 or 20 μM LY294002. It counts as cell-based, human. As for the experimental part:
as §1, §2

Series [5] relates to PHAS-1 (phosphorylated heat and acid-stable protein regulated by insulin).
Series [6] concerns the target T1, GST-ERRα1 1-173 (truncated GST-ERRα1 fusion protein) (UniProt P11474).
T1 sequence: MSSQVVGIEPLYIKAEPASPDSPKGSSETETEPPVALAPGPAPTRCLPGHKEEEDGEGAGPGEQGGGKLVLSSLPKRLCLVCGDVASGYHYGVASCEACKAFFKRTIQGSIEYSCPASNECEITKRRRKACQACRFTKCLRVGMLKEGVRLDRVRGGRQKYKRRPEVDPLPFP

Series [7] has as its target T2, GST-ERRα1 1-376 (truncated GST-ERRα1 fusion protein) (UniProt P11474).
T2 sequence: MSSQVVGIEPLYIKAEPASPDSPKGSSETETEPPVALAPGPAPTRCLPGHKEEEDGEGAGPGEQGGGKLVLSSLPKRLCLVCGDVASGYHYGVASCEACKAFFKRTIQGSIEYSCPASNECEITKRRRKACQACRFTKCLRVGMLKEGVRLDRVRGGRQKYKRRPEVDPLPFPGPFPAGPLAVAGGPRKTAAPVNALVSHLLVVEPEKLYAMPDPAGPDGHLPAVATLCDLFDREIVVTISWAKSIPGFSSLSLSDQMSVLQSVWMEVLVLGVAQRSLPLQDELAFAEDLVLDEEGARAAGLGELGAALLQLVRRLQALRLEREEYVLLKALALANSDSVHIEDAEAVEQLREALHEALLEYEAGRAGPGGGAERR

Series [8] deals with T3, GST-ERRα1 1-423 (full-length GST-ERRα1 fusion protein) (UniProt P11474).
T3 sequence: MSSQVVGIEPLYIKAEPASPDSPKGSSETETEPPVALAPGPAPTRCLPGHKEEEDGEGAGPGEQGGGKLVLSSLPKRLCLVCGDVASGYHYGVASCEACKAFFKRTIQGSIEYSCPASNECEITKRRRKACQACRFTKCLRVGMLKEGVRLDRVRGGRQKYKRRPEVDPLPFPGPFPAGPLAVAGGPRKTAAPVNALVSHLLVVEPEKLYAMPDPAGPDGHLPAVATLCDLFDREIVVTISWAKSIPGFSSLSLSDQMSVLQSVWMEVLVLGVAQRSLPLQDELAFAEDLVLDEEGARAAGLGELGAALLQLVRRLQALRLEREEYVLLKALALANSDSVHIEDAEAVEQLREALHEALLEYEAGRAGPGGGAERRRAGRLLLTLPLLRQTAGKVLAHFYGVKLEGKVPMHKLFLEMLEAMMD

The subject of series [9] is GST-β-globin 1-123 fusion protein [GST: P08515].
Series [10] has as its system ER-stimulated ERE-regulated transcription in MCF-7 cells. In words: Transient transfection dual-luciferase assay of ERE-regulated transcription in MCF-7 cells. In kind it is cell-based, human. To be noted: 100 pM E2, 48 h, estrogen-free medium, ER-positive MCF-7 cells. As for the experimental part:
(A) MCF-7 and (B) BT-474 cells were co-transfected in parallel with the ERE(5×)-regulated and TATA dual-luciferase reporter gene sets along with ERRα1, ERRα1L413A/L418A, GRIP1 (glucocorticoid receptor interacting protein 1, SRC2) or empty parental expression plasmids as indicated. Transfected cells were incubated for 48 h in estrogen-free medium supplemented with ethanol, the solvent for the ligands, 100 pM E2, or 100 pM E2 plus 100 nM fulvestrant (ICI 182,780, faslodex) prior to being harvested for dual-luciferase assays. The results shown here are means±standard deviations from data obtained in one representative experiment performed in triplicate.
Plasmids pERE(5x)-ffLuc and pTATA-ffLuc, encoding firefly luciferase, and plasmid pTATA-srLuc, encoding renilla luciferase, were used as matched dual-luciferase reporter sets to assay ERE-regulated versus basal transcription along with an internal control. They were constructed by insertion via HindIII linkers of the nts −31 to +31 region of the herpes simplex virus thymidine kinase (HSV-TK) promoter into pGL3-Basic and phRG-B (Promega, Madison, Wis.), respectively. Plasmid pERE(5x)-ffLuc, containing five tandem copies of the consensus palindromic ERE, was then constructed by insertion into pTATA-fELuc of the oligodeoxynucleotides 5′-tcgag[…]gag[…]ctc[…] GACCTCTgcg[…]gcg[…]a-3′ (SEQ ID NO:1) and 5′-gatct[…]cgc[…]cgc[…] […]

The target of series [11] is Human ERRα1 containing a C-terminal 6×His tag, expressed and purified from E. coli, P11474.

Chain of GST-β-globin 1-123 fusion protein [GST: P08515] (P08515 whole entry, looked up, the tested form may be a part): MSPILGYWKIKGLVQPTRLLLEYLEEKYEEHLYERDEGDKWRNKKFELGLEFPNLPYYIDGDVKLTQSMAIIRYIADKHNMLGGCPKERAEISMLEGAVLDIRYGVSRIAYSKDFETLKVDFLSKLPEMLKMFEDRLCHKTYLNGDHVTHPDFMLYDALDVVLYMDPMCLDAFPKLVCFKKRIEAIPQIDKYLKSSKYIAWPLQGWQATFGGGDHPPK

Turning to `N#CC(=C(/N)Sc1ccccc1N)/C(C#N)=C(\N)Sc1ccccc1N` [U0126], the “ERRα expression (immunoblot)” value in series [1] is “still expressed”. In series [2], the “phosphorylation of Akt / PI3K/Akt pathway activation (immunoblot)” value was “without affecting Akt status”. For the same molecule, the “reduction in ERRα1's activator activity” value in [3] is on record as “approximately 50%”. Also, the “phosphorylation of MAPK / MEK/MAPK pathway activation (immunoblot)” value in series [4] is recorded as “inhibition of phosphorylation of MAPK”.
Take “rat p42 MAPK2 (ERK2; Calbiochem) phosphorylated in vitro by a constitutively active MEK1 mutant”: the “in vitro phosphorylation with [γ32P]-ATP, 12% SDS-PAGE and PhosphorImager” value is “activated MAPK efficiently phosphorylated PHAS-1, but not GST-β-globin1-123” in [5]; “MAPK phosphorylated each of the GST-ERRα1 fusion proteins, with more label being incorporated into GST-ERRα11-423 than into GST-ERRα11-376 and GST-ERRα11-173” in series [6]; “MAPK phosphorylated each of the GST-ERRα1 fusion proteins, with more label being incorporated into GST-ERRα11-423 than into GST-ERRα11-376 and GST-ERRα11-173” in series [7]; “MAPK phosphorylated each of the GST-ERRα1 fusion proteins, with more label being incorporated into GST-ERRα11-423 than into GST-ERRα11-376 and GST-ERRα11-173” in series [8]; “activated MAPK efficiently phosphorylated PHAS-1, but not GST-β-globin1-123” in [9].
On to `O=c1cc(N2CCOCC2)oc2c(-c3ccccc3)cccc12` [LY294002, 2-(4-morpholinyl)-8-phenyl-4H-1-benzopyran-4-one], for which, in [1], the “ERRα expression (immunoblot)” value is “still expressed”. Moreover, in [2], the “phosphorylation of Akt / PI3K/Akt pathway activation (immunoblot)” value is on record as “inhibition of phosphorylation of Akt”. The “phosphorylation of MAPK / MEK/MAPK pathway activation (immunoblot)” value in series [4] is recorded as “without affecting MAPK status”.
As for `C[C@]12CC[C@@H]3c4ccc(O)cc4CC[C@H]3[C@@H]1CC[C@@H]2O` [E2, 17β-estradiol], in [10], the “induction of ERE-regulated transcription” value turned out to be 19 fold.

B1: Human Akt2 containing an N-terminal 6×His tag, lacking amino acids 1-117 (Pleckstrin Homology domain), serine 474 mutated to aspartic acid (protein)
chain: HHHHHHDPMDYKCGSPSDSSTTEEMEVAVSKARAKVTMNDFDYLKLLGKGTFGKVILVREKATGRYYAMKILRKEVIIAKDEVAHTVTESRVLQNTRHPFLTALKYAFQTHDRLCFVMEYANGGELFFHLSRERVFTEERARFYGAEIVSALEYLHSRDVVYRDIKLENLMLDKDGHIKITDFGLCKEGISDGATMKTFCGTPEYLAPEVLEDNDYGRAVDWWGLGVVMYEMMCGRLPFYNQDHERLFELILMEEIRFPRTLSPEAKSLLAGLLKKDPKQRLGGGPSDAKEVMEHRFFLSINWQDVVQKKLLPPFKPQVTSEVDTRYFDDEFTAQSITITPPDRYDSLGLLELDQRTHFPQFDYSASIRE
Consider B1, for which the “in vitro phosphorylation with [γ-32P]-ATP, SDS-(4-12%) PAGE and autoradiography” value in [11] is reported as “Each of the kinases tested was capable of phosphorylating ERRα in vitro”.

B2: Human Akt1 containing an N-terminal 6×His tag, lacking amino acids 1-117 (Pleckstrin Homology domain), serine 473 mutated to aspartic acid (protein)
chain: HHHHHHMDFRSGSPSDNSGAEEMEVSLAKPKHRVTMNEFEYLKLLGKGTFGKVILVKEKATGRYYAMKILKKEVIVAKDEVAHTLTENRVLQNSRHPFLTALKYSFQTHDRLCFVMEYANGGELFFHLSRERVFSEDRARFYGAEIVSALDYLHSEKNVVYRDLKLENLMLDKDGHIKITDFGLCKEGIKDGATMKTFCGTPEYLAPEVLEDNDYGRAVDWWGLGVVMYEMMCGRLPFYNQDHEKLFELILMEEIRFPRTLGPEAKSLLSGLLKKDPKQRLGGGSEDAKEIMQHRFFAGIVWQHVYEKKLSPPFKPQVTSETDTRYFDEEFTAQMITITPPDQDDSMECVDSERRPHFPQFDYSASGTA
Take B2: the “in vitro phosphorylation with [γ-32P]-ATP, SDS-(4-12%) PAGE and autoradiography” value in series [11] is given as “Each of the kinases tested was capable of phosphorylating ERRα in vitro”.

B3: Human MAPK1 containing an N-terminal GST tag, activated with MEK1 (protein)
chain: MAAAAAQGGGGGEPRRTEGVGPGVPGEVEMVKGQPFDVGPRYTQLQYIGEGAYGMVSSAYDHVRKTRVAIKKISPFEHQTYCQRTLREIQILLRFRHENVIGIRDILRASTLEAMRDVYIVQDLMETDLYKLLKSQQLSNDHICYFLYQILRGLKYIHSANVLHRDLKPSNLLINTTCDLKICDFGLARIADPEHDHTGFLTEYVATRWYRAPEIMLNSKGYTKSIDIWSVGCILAEMLSNRPIFPGKHYLDQLNHILGILGSPSQEDLNCIINMKARNYLQSLPSKTKVAWAKLFPKSDSKALDLLDRMLTFNPNKRITVEEALAHPYLEQYYDPTDEPVAEEPFTFAMELDDLPKERLKELIFQETARFQPGVLEAP
Take B3: in series [11], the “in vitro phosphorylation with [γ-32P]-ATP, SDS-(4-12%) PAGE and autoradiography” value is “Each of the kinases tested was capable of phosphorylating ERRα in vitro”.
